# According to publication PMC8222254, “Self-assembly of an anion receptor with metal-dependent kinase inhibition and potent in vitro anti-cancer properties” (Nature Communications, 2021):
# Several values for one entry are separate records, joined by “and”; a condition that tells them apart may be missing. Identical values can stand only once. Like-named read-outs stand apart in the source and are kept apart here.
# Experiments:
# Test in all cases: Chemosensitivity, 96 h continuous exposure, MTT assay
# Type in all cases: cell-based, human
# [1] = tested on: HCT116 p53+/+
# Text: (§1) All cell lines were purchased from and maintained as monolayers as described by the American Type Culture Collection with the exception of the p53^+/+ and p53^−/− isogenic clones of HCT116 human colorectal adenocarcinoma cells which were a kind gift from Professor Bert Vogelstein[54]. GBM1 cells were established from a primary GBM tumour by Heiko Wurdak and colleagues[32],[33]. Non-cancerous adult brain neural progenitor (NP1) cells were derived from a patient undergoing surgery to treat epilepsy[32],[33]. Cell culture and growth media for NP1 and GBM1 cells were as described[32],[33]. The response of cells following a continuous 96-h exposure to test compounds and platinates was determined using the MTT assay. Potency was recorded as the IC50 and the selectivity index (SI) was defined as the ratio of IC50 values for non-cancer to cancer cell lines with values >1 representing selectivity for cancer cells as opposed to non-cancer cells.
# (§2) All cell lines used were maintained at low passage in antibiotic-free media. HT29, DLD-1, HCT116 p53^+/+ and HCT116 p53^−/− are all colorectal adenocarcinoma cell lines derived from different individuals and harbour different combinations of oncogenic lesions (except for the HCT116 isogenic cancer cell clones that are genetically identical except for p53 status). PSN-1, BxPC-3 and MiaPaCa2 are pancreatic carcinoma cell lines and A549 and H460 are lung carcinoma cell lines. HT29, DLD-1, PSN-1, BxPC-3, A549 and H460 cell lines were cultured in RPMI-1640 growth media (Sigma) containing 2 mM L-glutamine, 1 mM sodium pyruvate and 10% foetal bovine serum (FBS). HCT116 (p53^+/+ and p53^−/−) and MiaPaCa2 cell lines were cultured in Dulbecco’s Modified Eagle’s Medium (Sigma), 2 mM L-glutamine and 10% FBS. The ARPE-19 retinal epithelial non-cancer cell line was cultured in DMEM/F12 media (Gibco), 2 mM L-glutamine, 1 mM sodium pyruvate and 10% FBS. The MCF10A non-cancerous human breast epithelial cell line was cultured in Minimal Essential Media Eagle (Sigma), 2 mM L-glutamine, 1 mM sodium pyruvate, 10% FBS and 1x non-essential amino acids (NEAA). NP1 and GBM1 cells were cultured on plasticware coated with poly-L-ornithine (5 µg/ml) and laminin (2.4 µg/ml)[32],[33]. NP1 cells were grown in DMEM/F12 media (Gibco) supplemented with 5% FBS, 20 ng/ml hFGF, 20 ng/ml rhEGF, 0.5x B-27 supplement (Gibco), 0.5x N-2 supplement (Gibco) and 1x GLUTAMAX (Gibco). GBM1 cells were cultured in Neurobasal media (Gibco) supplemented with 40 ng/ml hFGF, 40 ng/ml rhEGF, 0.5x B-27 supplement (Gibco) and 0.5x N-2 supplement (Gibco).
# (§3) [L2(Metal)3]^6+ and all the other self-assembling complexes were freshly formed by adding DMSO to individual components and mixing together by pipetting. These were then further diluted in cell culture media such that the final DMSO concentration that cells were exposed to was 0.2% (vehicle control). Cisplatin, oxaliplatin and carboplatin were dissolved in phosphate buffered saline. Cell lines were seeded into 96 well plates at 2 × 10^3 cells per well and incubated overnight at 37 °C. GBM1 cancer stem-like cells were seeded at 3 × 10^3 cells per well and NP1 neural progenitors were seeded at 1.5 × 10^3 cells per well. The following day, media was removed and replaced with fresh media containing test compounds at a range of concentrations. Cells were incubated with test compounds for a further 96 h after which the media was removed and replaced with fresh media (200 μl/well). MTT was added (20 μl at 5 mg/ml) and cells were incubated for a further 4 h. Media and MTT were removed and formazan crystals were dissolved in 150 μl of DMSO and the absorbance of the resulting solution determined at 540 nm. Dose response curves were constructed, and the concentration required to reduce cell growth by 50% (IC50) determined.
# [2] = tested on: HT-29
# Text: as §1, §2, §3
# [3] = tested on: ARPE-19 non-cancer cells
# Text: as §1, §2, §3
# [4] = tested on: MCF10A non-cancer cells
# Text: as §1, §2, §3
# [5] = tested on: HCT116 p53-/-
# Text: as §1, §2, §3
# [6] = tested on: H460
# Text: as §1, §2, §3
# [7] = tested on: A549
# Text: as §1, §2, §3
compound,measurement,setting,value
CC(=O)[O-].CC(=O)[O-].CC(=O)[O-].O=P([O-])([O-])[O-].[Zn+2].[Zn+2].[Zn+2].c1ccc(-c2csc(NCCN(CCNc3nc(-c4ccccn4)cs3)CCNc3nc(-c4ccccn4)cs3)n2)nc1.c1ccc(-c2csc(NCCN(CCNc3nc(-c4ccccn4)cs3)CCNc3nc(-c4ccccn4)cs3)n2)nc1 [[L2Zn3(PO4)]3+],IC50,"[1]; HCT116 p53+/+, mean of replicates, read-out: Mean IC50",0.218 µM
same,IC50,"[1]; HCT116 p53+/+, read-out: Mean IC50 values",0.218 µM
same,IC50,"[1]; HCT116 p53+/+, single replicate, read-out: IC50 values for each replicate",0.218 µM and 0.227 µM and 0.209 µM
same,Selectivity index (ARPE19),[1]; IC50 ARPE-19 / IC50 HCT116 p53+/+,600.78
same,Selectivity index (MCF10A),[1]; IC50 MCF10A / IC50 HCT116 p53+/+,66.16
same,"Relative potency (+ anion to no anion), Ratio + anion:no anion","[1]; ratio of IC50, HCT116 p53+/+",0.47
same,"Selectivity indices relative to ARPE-19, Ratio + anion:no anion","[1]; ratio of SI (ARPE-19), HCT116 p53+/+",1.780
same,"Selectivity indices relative to MCF10A, Ratio + anion:no anion","[1]; ratio of SI (MCF 10A), HCT116 p53+/+",0.191
same,IC50,"[2]; HT29, mean of replicates, read-out: Mean IC50",0.214 µM
same,IC50,"[2]; HT29, read-out: Mean IC50 values",0.214 µM
same,IC50,"[2]; HT-29, single replicate, read-out: IC50 values for each replicate",0.091 µM and 0.254 µM and 0.236 µM and 0.228 µM and 0.262 µM
same,Selectivity index (ARPE19),[2]; IC50 ARPE-19 / IC50 HT29,612.01
same,Selectivity index (MCF10A),[2]; IC50 MCF10A / IC50 HT29,67.40
same,"Relative potency (+ anion to no anion), Ratio + anion:no anion","[2]; ratio of IC50, HT29",1.27
same,"Selectivity indices relative to ARPE-19, Ratio + anion:no anion","[2]; ratio of SI (ARPE-19), HT29",0.658
same,"Selectivity indices relative to MCF10A, Ratio + anion:no anion","[2]; ratio of SI (MCF 10A), HT29",0.070
same,IC50,"[3]; ARPE-19, mean of replicates, read-out: Mean IC50",131 µM
same,IC50,"[3]; ARPE-19, single replicate, read-out: IC50 values for each replicate",121 µM and 118 µM and 154 µM
same,IC50,"[3]; ARPE-19 non-cancer, read-out: Mean IC50 values",131 µM
same,"Relative potency (+ anion to no anion), Ratio + anion:no anion","[3]; ratio of IC50, ARPE-19",0.83
same,IC50,"[4]; MCF10A non-cancer, read-out: Mean IC50 values",14.4 µM
same,IC50,"[4]; MCF10A, mean of replicates, read-out: Mean IC50",14.4 µM
same,IC50,"[4]; MCF10A, single replicate, read-out: IC50 values for each replicate",11.9 µM and 15 µM and 16.3 µM
same,"Relative potency (+ anion to no anion), Ratio + anion:no anion","[4]; ratio of IC50, MCF10A",0.09
same,IC50,"[5]; HCT116 p53-/-, read-out: Mean IC50 values",0.078 µM
same,IC50,"[5]; HCT116 p53-/-, single replicate, read-out: IC50 values for each replicate",0.061 µM and 0.091 µM and 0.064 µM
same,Selectivity index (ARPE19),[5]; IC50 ARPE-19 / IC50 HCT116 p53-/-,1679.10
same,Selectivity index (MCF10A),[5]; IC50 MCF10A / IC50 HCT116 p53-/-,184.91
same,"Relative potency (+ anion to no anion), Ratio + anion:no anion","[5]; ratio of IC50, HCT116 p53-/-",1.08
same,"Selectivity indices relative to ARPE-19, Ratio + anion:no anion","[5]; ratio of SI (ARPE-19), HCT116 p53-/-",0.769
same,"Selectivity indices relative to MCF10A, Ratio + anion:no anion","[5]; ratio of SI (MCF 10A), HCT116 p53-/-",0.082
same,IC50,"[6]; H460, mean of replicates, read-out: Mean IC50",0.249 µM
same,IC50,"[6]; H460, read-out: Mean IC50 values",0.249 µM
same,IC50,"[6]; H460, single replicate, read-out: IC50 values for each replicate",0.241 µM and 0.263 µM and 0.265 µM and 0.226 µM
same,Selectivity index (ARPE19),[6]; IC50 ARPE-19 / IC50 H460,525.98
same,Selectivity index (MCF10A),[6]; IC50 MCF10A / IC50 H460,57.92
same,"Relative potency (+ anion to no anion), Ratio + anion:no anion","[6]; ratio of IC50, H460",0.69
same,"Selectivity indices relative to ARPE-19, Ratio + anion:no anion","[6]; ratio of SI (ARPE-19), H460",1.204
same,"Selectivity indices relative to MCF10A, Ratio + anion:no anion","[6]; ratio of SI (MCF 10A), H460",0.129
same,IC50,"[7]; A549, mean of replicates, read-out: Mean IC50",0.501 µM
same,IC50,"[7]; A549, read-out: Mean IC50 values",0.501 µM
same,IC50,"[7]; A549, single replicate, read-out: IC50 values for each replicate",0.234 µM and 0.734 µM and 0.617 µM and 0.417 µM
same,Selectivity index (ARPE19),[7]; IC50 ARPE-19 / IC50 A549,261.42
same,Selectivity index (MCF10A),[7]; IC50 MCF10A / IC50 A549,28.79
same,"Relative potency (+ anion to no anion), Ratio + anion:no anion","[7]; ratio of IC50, A549",1.24
same,"Selectivity indices relative to ARPE-19, Ratio + anion:no anion","[7]; ratio of SI (ARPE-19), A549",0.670
same,"Selectivity indices relative to MCF10A, Ratio + anion:no anion","[7]; ratio of SI (MCF 10A), A549",0.072
